Measured values as given in patent publication US9260700B2 (priority 2011, dated 2016).

Experiments:
[1] = tested on: Myrothecium verrucaria bilirubin oxidase (BOD), produced in Pichia pastoris; settings: pH 6.5, with respect to ABTS; cited from earlier work
[2] = molecular target: Magnaporthe oryzae bilirubin oxidase (BOD), produced in Pichia pastoris, SEQ. ID. No.3 (SEQ. ID. No.1 with additional N-terminal serine) (Pyricularia oryzae, UniProt G4MQU0); assay type: biochemical; settings: 37° C., citrate-phosphate buffer 50 mM pH 3.6, bilirubin 0 to 100 μM

| Compound | Km [1] [µM] | Km [2] [µM] | kcat [2] [s⁻¹] |
| --- | --- | --- | --- |
| CCn1c(=NN=c2sc3cc(S(=O)(=O)O)ccc3n2CC)sc2cc(S(=O)(=O)O)ccc21 [ABTS, 2,2′-azino-bis(3-ethylbenzothiazoline-6-sulphonic acid)] | 340 | – | – |
| conjugated bilirubin | – | 18.5 | 28 |
